Measurements: article PMC8296573, “Synthesis and Biological Evaluation of Fingolimod Derivatives as Antibacterial Agents” (ACS Omega, 2021)
Values after ≈ are worked out from the molar mass of the structure shown. Read-outs that look alike come from different tables or passages of the source.

What was measured:
[1] = system: S. aureus ATCC 25923; assay: Antibacterial activity, pre-exposure (planktonic cells and biofilm formation); format: cell-based, Staphylococcus aureus; conditions: for MIC / inhibition at 5 µM / inhibition at 10 µM / inhibition at 15 µM / inhibition at 25 µM: Staphylococcus aureus, ATCC25923; for inhibition at 5 µM / inhibition at 10 µM / inhibition at 15 µM / inhibition at 25 µM / Average inhibition %, biofilms viability / Average inhibition %, planktonic cells viability: pre-exposure, ± SD
Summary of the method: (§1)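 Pre-exposure format: compounds added with bacteria, 18 h aerobic at 37 °C with shaking. Planktonic growth read by OD and resazurin (20 μM final) fluorescence; biofilms by resazurin viability then crystal violet biomass (A595). Resazurin incubation time/temperature varied by species.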

[2] = system: P. aeruginosa ATCC 9027; assay: Antibacterial activity, pre-exposure; format: cell-based, Pseudomonas aeruginosa; conditions: for Average inhibition %, biofilms viability / Average inhibition %, planktonic cells viability / inhibition at 50 µM / inhibition at 100 µM / inhibition at 150 µM / inhibition at 200 µM: P. aeruginosa ATCC 9027, pre-exposure, ± SD; for MIC / inhibition at 50 µM / inhibition at 100 µM / inhibition at 150 µM / inhibition at 200 µM: Pseudomonas aeruginosa; for inhibition at 50 µM / inhibition at 100 µM / inhibition at 150 µM / inhibition at 200 µM: ATCC9027
Summary of the method: as §1

[3] = system: A. baumannii NCTC 13423; assay: Antibacterial activity, pre-exposure; format: cell-based, Acinetobacter baumannii; conditions: for Average inhibition %, biofilms viability / Average inhibition %, planktonic cells viability / inhibition at 10 µM / inhibition at 15 µM / inhibition at 25 µM / inhibition at 50 µM: A. baumannii NCTC 13423, pre-exposure, ± SD; for inhibition at 10 µM / inhibition at 15 µM / inhibition at 25 µM / inhibition at 50 µM / MIC: Acinetobacter baumannii, NCTC13423
Summary of the method: as §1

[4] = system: S. aureus ATCC 25923; assay: Antibacterial activity, post-exposure on preformed 18-h-old biofilms; format: cell-based, Staphylococcus aureus; conditions: for Average inhibition %, biofilms viability / Average inhibition %, planktonic cells viability / inhibition at 25 µM / inhibition at 50 µM / inhibition at 100 µM / inhibition at 200 µM: ± SD; for inhibition at 25 µM / inhibition at 50 µM / inhibition at 100 µM / inhibition at 200 µM: Staphylococcus aureus; for inhibition at 25 µM: ATCC25923, 25 µM; for inhibition at 50 µM: ATCC25923, 50 µM; for inhibition at 100 µM: ATCC25923, 100 µM; for inhibition at 200 µM: ATCC25923, 200 µM
Summary of the method: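 Biofilms grown 18 h without compound, medium then replaced and compound added for a further 24 h. Planktonic OD and resazurin (20 μM final) fluorescence (ex 560/em 590 nm) read; washed biofilms stained with 20 μM resazurin 30 min at 37 °C, then ethanol-fixed and crystal violet-stained, absorbance 595 nm.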

[5] = 10 µM, read-out: Average inhibition %, biofilms biomass
[6] = 10 µM, read-out: Average inhibition %, planktonic cells turbidity
[7] = 15 µM, read-out: Average inhibition %, biofilms biomass
[8] = 15 µM, read-out: Average inhibition %, planktonic cells turbidity
[9] = 25 µM, read-out: Average inhibition %, biofilms biomass
[10] = 25 µM, read-out: Average inhibition %, planktonic cells turbidity
[11] = 50 µM, read-out: Average inhibition %, biofilms biomass
[12] = 50 µM, read-out: Average inhibition %, planktonic cells turbidity
[13] = read-out: Average inhibition %, biofilms biomass
[14] = read-out: Average inhibition %, planktonic cells turbidity

## CCCCCCCCc1ccc2ccc(CC(N)(CO)CO)nc2c1 [Compound 82, 2-Amino-2-[(7-octylquinolin-2-yl)methyl]propane-1,3-diol]
[1]; lowest concentration with no visible growth (>90% inhibition of turbidity and viability of planktonic cells), 18 h, read-out: MIC S. aureus ATCC 25923
  MIC: 15 µM (≈ 5.17 µg/mL)
[1]; 5 µM, read-out: Average inhibition %, biofilms biomass
  inhibition at 5 µM: 41.7 ± 5.1%
[1]; 5 µM, read-out: Average inhibition %, planktonic cells turbidity
  inhibition at 5 µM: 32.8 ± 33.4%
[1]; [5]
  inhibition at 10 µM: 67.2 ± 23.4%
[1]; [6]
  inhibition at 10 µM: 61.5 ± 33.3%
[1]; [7]
  inhibition at 15 µM: 94.4 ± 4.6%
[1]; [8]
  inhibition at 15 µM: 99.9 ± 0.1%
[1]; [9]
  inhibition at 25 µM: 93 ± 5.8%
[1]; [10]
  inhibition at 25 µM: 99.9 ± 0.1%
[1]; read-out: MIC (S. aureus)
  MIC: 15 µM (≈ 5.17 µg/mL)
[1]; lowest concentration with no visible growth (>90% inhibition of turbidity and viability of planktonic cells), 18 h
  MIC S. aureus ATCC 25923: same MIC as fingolimod
[1]; 5 µM
  Average inhibition %, biofilms viability: 34.4 ± 13.6%
  Average inhibition %, planktonic cells viability: 6.1 ± 10.6%
[1]; 10 µM
  Average inhibition %, biofilms viability: 63.5 ± 30.9%
  Average inhibition %, planktonic cells viability: 33 ± 57.1%
[1]; 15 µM
  Average inhibition %, biofilms viability: 99.7 ± 0.3%
  Average inhibition %, planktonic cells viability: 99.6 ± 0%
[1]; 25 µM
  Average inhibition %, biofilms viability: 99.7 ± 0.4%
  Average inhibition %, planktonic cells viability: 99.7 ± 0%
[2]; 50 µM
  Average inhibition %, biofilms viability: 6.4 ± 5.7%
  Average inhibition %, planktonic cells viability: 53.2 ± 3.8%
[2]; 100 µM
  Average inhibition %, biofilms viability: 8.3 ± 8.6%
  Average inhibition %, planktonic cells viability: 48.1 ± 18.4%
[2]; 150 µM
  Average inhibition %, biofilms viability: 3.5 ± 6%
  Average inhibition %, planktonic cells viability: 57.4 ± 19%
[2]; 200 µM
  Average inhibition %, biofilms viability: 31.5 ± 49.1%
  Average inhibition %, planktonic cells viability: 51.6 ± 41.5%
[2]; ATCC9027, pre-exposure, Inactive = no activity up to 200 μM, > = some inhibition but no MIC reached, read-out: MIC P. aeruginosa ATCC 9027
  MIC: > 200 µM
[2]; ATCC9027, supplementary molecular formula strings sheet, read-out: MIC (P. aeruginosa)
  MIC: > 200 µM
[2]; [11]
  inhibition at 50 µM: 7.6 ± 7%
[2]; [12]
  inhibition at 50 µM: 46.8 ± 2.3%
[2]; 100 µM, read-out: Average inhibition %, biofilms biomass
  inhibition at 100 µM: 1.8 ± 2.7%
[2]; 100 µM, read-out: Average inhibition %, planktonic cells turbidity
  inhibition at 100 µM: 51.6 ± 8.5%
[2]; 150 µM, read-out: Average inhibition %, biofilms biomass
  inhibition at 150 µM: 2.7 ± 4.8%
[2]; 150 µM, read-out: Average inhibition %, planktonic cells turbidity
  inhibition at 150 µM: 61.3 ± 19.9%
[2]; 200 µM, read-out: Average inhibition %, biofilms biomass
  inhibition at 200 µM: 27.5 ± 24.4%
[2]; 200 µM, read-out: Average inhibition %, planktonic cells turbidity
  inhibition at 200 µM: 75.7 ± 14.1%
[3]; 10 µM
  Average inhibition %, biofilms viability: 3.9 ± 5.3%
  Average inhibition %, planktonic cells viability: 10.4 ± 9%
[3]; 15 µM
  Average inhibition %, biofilms viability: 96.5 ± 6%
  Average inhibition %, planktonic cells viability: 99.5 ± 0.5%
[3]; 25 µM
  Average inhibition %, biofilms viability: 100.7 ± 1.1%
  Average inhibition %, planktonic cells viability: 99.7 ± 0%
[3]; 50 µM
  Average inhibition %, biofilms viability: 99 ± 1.3%
  Average inhibition %, planktonic cells viability: 99.6 ± 0%
[3]; [5]
  inhibition at 10 µM: 13.3 ± 12.9%
[3]; [6]
  inhibition at 10 µM: 1 ± 1.4%
[3]; [7]
  inhibition at 15 µM: 74.7 ± 11.1%
[3]; [8]
  inhibition at 15 µM: 98.3 ± 2.5%
[3]; [9]
  inhibition at 25 µM: 88.6 ± 7.8%
[3]; [10]
  inhibition at 25 µM: 99.8%
[3]; [11]
  inhibition at 50 µM: 82.6 ± 12.7%
[3]; [12]
  inhibition at 50 µM: 99.4 ± 0.1%
[3]; pre-exposure, Inactive = no activity up to 50 μM, > = some inhibition but no MIC reached, read-out: MIC A. baumannii NCTC 13423
  MIC: 15 µM (≈ 5.17 µg/mL)
[3]; supplementary molecular formula strings sheet, read-out: MIC (A. baumannii)
  MIC: 15 µM (≈ 5.17 µg/mL)
[4]; 25 µM
  Average inhibition %, biofilms viability: 11.8 ± 8.4%
  Average inhibition %, planktonic cells viability: 0 ± 0%
[4]; 50 µM
  Average inhibition %, biofilms viability: 27.8 ± 14.6%
  Average inhibition %, planktonic cells viability: 17.9 ± 25.5%
[4]; 100 μM
  Inhibition of viability and total biomass of preformed biofilms: at least 70%
[4]; 100 µM
  Average inhibition %, biofilms viability: 81.5 ± 32.8%
  Average inhibition %, planktonic cells viability: 94.5 ± 10%
[4]; 200 µM
  Average inhibition %, biofilms viability: 100.2 ± 0.2%
  Average inhibition %, planktonic cells viability: 100.5 ± 0.5%
[4]; [13]
  inhibition at 25 µM: 45.6 ± 7.5%
  inhibition at 50 µM: 51.6 ± 10.3%
  inhibition at 100 µM: 79.6 ± 17%
  inhibition at 200 µM: 79.8 ± 5.7%
[4]; [14]
  inhibition at 25 µM: 14.1 ± 11.7%
  inhibition at 50 µM: 34.6 ± 28.4%
  inhibition at 100 µM: 79.1 ± 11.5%
  inhibition at 200 µM: 77.9 ± 10%
